Assay [1] deals with lethality in mice caused by an anti-Fas antibody (clone Jo2). In words: Protection against lethality in mice caused by anti-Fas antibody (clone Jo2). The assay is classed as in vivo. The settings on record: Swiss Webster female mice, 6 μg Fas antibody. On the procedure:
Cbz-Phg-Asp-fmk was examined as a protectant against lethality in mice caused by an anti-Fas antibody (clone Jo2) (Rodriguez, I. et al J. Exp. Med 184:2067-2072 (1996). Swiss Webster female mice weighing between 16-20 g were used. Food and water were given ad libium. Purified hamster anti-mouse Fas monoclonal antibody (clone Jo2, commercially available) 1 mg/ml in phosphate buffered saline was dosed i.v. at 6 μg/mouse (80 μl).
Cbz-Phg-Asp-fmk was dissolved in 0.05M Tris base adjusted to pH 8.5 with HCl. The concentration of Cbz-Phg-Asp-fmk was 1-10 mg/ml dosed as a single bolus i.v. in a volume of 1-5 μl/g body weight. Five groups of mice were injected with 6 μg of Fas antibody per mouse. 5 minutes following the antibody injection the mice received either Tris vehicle control or 1, 2.5, 10 or 50 mg/kg of Cbz-Phg-Asp-fmk. The survival of the mice was followed throughout 24 hours.

The target in assay [2] is T1, caspase-3 (CPP32) (Homo sapiens, UniProt P42574).
T1 construct: made in house; host or cells: Sf9 insect cells, baculovirus vector
T1 sequence (P42574 29-175 limits assumed): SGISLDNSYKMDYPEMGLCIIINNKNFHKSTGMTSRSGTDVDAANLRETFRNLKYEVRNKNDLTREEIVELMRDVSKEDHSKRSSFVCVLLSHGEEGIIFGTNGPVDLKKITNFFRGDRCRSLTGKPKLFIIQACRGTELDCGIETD
T1 sequence (P42574 176-277 limits assumed): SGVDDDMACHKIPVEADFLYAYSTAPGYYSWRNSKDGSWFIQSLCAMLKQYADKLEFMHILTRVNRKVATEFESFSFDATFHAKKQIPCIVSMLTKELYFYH
Briefly: Fluorometric enzyme assay of caspase-3 inhibition. The assay is classed as biochemical. To be noted: recombinant caspase-3, substrate Asp-Glu-Val-Asp-AMC 5 μM, 30° C., 30 minutes. As for the experimental part: The activity of Cbz-Phg-Asp-fmk as an inhibitor of caspase-3 (CPP32) was measured in a fluorometric enzyme assay. Recombinant caspase-3 protein was prepared by expressing DNA clones encoding these enzymes in an insect host cell (sf9 cells) using baculovirus as the vector. See, Webb, N.R. et al., "Expression of proteins using recombinant Baculovirus," Techniques 2:173-188 (1990). Enzyme activity was measured using synthetic peptide substrates attached to a fluorogenic leaving group. Cleavage of the synthetic substrate by the enzyme results in a fluorescent signal which is read in a spectrofluorometer or in a fluorometric microtiter plate reader.
Caspase-3 activity was measured using the following buffer conditions: 100 mM HEPES pH 7.5, with 10% sucrose, 1% CHAPS. The peptide substrate for caspase-3 is Asp-Glu-Val-Asp-AMC (SEQ ID NO:2). […] The assay for enzyme activity was typically carried out at 30° C. for 30 minutes.

One may read the IC50 as the concentration at which inhibition is half-maximal.

Square brackets hold non-standard residues; d marks the D form. Peptide text beside a SMILES is read from it. * marks the point of attachment. ξ: configuration not given here. 1Nal = N[C@@H](Cc1cccc2ccccc12)C(=O)O; ξPhg = NC(C(=O)O)c1ccccc1; Cbz = O=C(OCc1ccccc1)*; CH2F = FC*

As to `O=C(O)C[C@H](NC(=O)C(NC(=O)OCc1ccccc1)c1ccccc1)C(=O)CF` (stereo partly drawn) [Cbz-Phg-Asp-fmk] (Cbz-[ξPhg]-Asp-CH2F), the Percent survival in assay [1] (1 mg/kg i.v., 1 h) stood at 100%; in assay [1] (1 mg/kg i.v., 3 h), 14.3%; in assay [1] (1 mg/kg i.v., 24 h) it was 0%; in assay [1] (2.5 mg/kg i.v., 1 h), 100%; in assay [1] (2.5 mg/kg i.v., 3 h), 28.6%; in assay [1] (2.5 mg/kg i.v., 24 h) it was 0%. Further, the Percent survival is listed as 100% in assay [1] (10 mg/kg i.v., 1 h); 42.9% in assay [1] (10 mg/kg i.v., 3 h); 14.3% in assay [1] (10 mg/kg i.v., 24 h); 100% in assay [1] (50 mg/kg i.v., 1 h); 100% in assay [1] (50 mg/kg i.v., 3 h); 42.9% in assay [1] (50 mg/kg i.v., 24 h).

`O=C(O)CC(NC(=O)C(NC(=O)OCc1ccccc1)c1ccccc1F)C(=O)CF` (stereo not shown) [Z-(2-F--Phg)--Asp--fmk, Z-(2-F-Phg)-Asp-fmk]: the IC50 in assay [2] worked out at 0.36 µM.

In the case of `O=C(O)CC(NC(=O)C(NC(=O)OCc1ccccc1)c1ccco1)C(=O)CF` (stereo not shown) [Z-(2-Fug)--Asp--fmk, Z-(2-Fug)-Asp-fmk], in assay [2], the concentration for half-maximal inhibition (IC50) was determined as 0.44 µM.

On to `O=C(O)C[C@H](NC(=O)C(NC(=O)OCc1ccccc1)c1cccs1)C(=O)CF` (stereo partly shown) [Z-(2-Thg)--Asp--fmk, Z-(2-Thg)-Asp-fmk], for which the IC50 in assay [2] stood at 0.28 µM.

Take `CC(C)C(CNC(=O)OCc1ccccc1)C(=O)N[C@@H](CC(=O)O)C(=O)CF` (stereo partly drawn) [Z-(2-i-Pr-- --Ala)--Asp--fmk, Z-(2-i-Pr-β-Ala)-Asp-fmk]: the concentration for half-maximal inhibition (IC50) in assay [2] stood at 1.4 µM.

As for `O=C(O)CC(NC(=O)C(CF)NC(=O)OCc1ccccc1)C(=O)CF` (stereo not shown) [Z-(3-F-Ala)--Asp--fmk, Z-(3-F-Ala)-Asp-fmk], in assay [2], the concentration for half-maximal inhibition (IC50) worked out at 0.9 µM.

As to `CC(C)(F)[C@H](NC(=O)OCc1ccccc1)C(=O)N[C@@H](CC(=O)O)C(=O)CF` [Z-(3-F-Val)--Asp--fmk, Z-(3-F-Val)-Asp-fmk], the IC50 in assay [2] was found to be 0.44 µM.

With `CN(C)CC(NC(=O)OCc1ccccc1)C(=O)NC(CC(=O)O)C(=O)CF` (stereo not shown) [Z-(3-Me2 N--Ala]--Asp--fmk, Z-(3-Me2 N-Ala)-Asp-fmk], the IC50 in assay [2] came out at 9.6 µM.

Turning to `O=C(O)C[C@H](NC(=O)CC(NC(=O)OCc1ccccc1)c1ccccc1)C(=O)CF` (stereo partly drawn) [Z-(3-Ph-- --Ala)--Asp--fmk, Z-(3-Ph-β-Ala)-Asp-fmk], the IC50 in assay [2] worked out at 4.7 µM.

Turning to `O=C(O)CC(NC(=O)C(NC(=O)OCc1ccccc1)c1ccsc1)C(=O)CF` (stereo not shown) [Z-(3-Thg)--Asp--fmk, Z-(3-Thg)-Asp-fmk], the IC50 in assay [2] was 0.34 µM.

For the compound `O=C(O)CC(NC(=O)C(NC(=O)OCc1ccccc1)c1ccc(C(F)(F)F)cc1)C(=O)CF` (stereo not shown) [Z-(4-CF3 --Phg)--Asp--fmk, Z-(4-CF3 -Phg)-Asp-fmk], in assay [2], the half-maximal inhibitory concentration (IC50) amounted to 1.2 µM.

Regarding `O=C(O)CC(NC(=O)C(NC(=O)OCc1ccccc1)c1ccc(Cl)cc1)C(=O)CF` (stereo not shown) [Z-(4-Cl--Phg)--Asp--fmk, Z-(4-Cl-Phg)-Asp-fmk], the half-maximal inhibitory concentration (IC50) in assay [2] was found to be 0.27 µM.

With `O=C(O)CC(NC(=O)C(NC(=O)OCc1ccccc1)c1ccc(F)cc1)C(=O)CF` (stereo not shown) [Z-(4-F-Phg)--Asp--fmk, Z-(4-F-Phg)-Asp-fmk], the 50% inhibitory concentration (IC50) in assay [2] was 1.2 µM.

As for `CC(C(NC(=O)OCc1ccccc1)C(=O)NC(CC(=O)O)C(=O)CF)C(F)(F)F` (stereo not shown) [Z--(F3 --Val)--Asp--fmk, Z-(F3 -Val)-Asp-fmk], the concentration for half-maximal inhibition (IC50) in assay [2] turned out to be 0.6 µM.

Turning to `O=C(O)C[C@H](NC(=O)[C@H](Cc1cccc2ccccc12)NC(=O)OCc1ccccc1)C(=O)CF` [Z-[(L)-1-Nal]--Asp--fmk, Z-[(L)-1-Nal]-Asp-fmk] (Cbz-[1Nal]-Asp-CH2F), the IC50 in assay [2] stood at 1 µM.

`O=C(O)CC(NC(=O)C(NC(=O)OCc1ccccc1)c1cccs1)C(=O)CF` (stereo not shown) [Z-[(L)-2-Thg]--Asp--fmk, Z-[(L)-2-Thg]-Asp-fmk]: the concentration for half-maximal inhibition (IC50) in assay [2] worked out at 0.51 µM.

On to `N#CCC(NC(=O)OCc1ccccc1)C(=O)NC(CC(=O)O)C(=O)CF` (stereo not shown) [Z-[(L)-3-CN--Ala]--Asp--fmk, Z-[(L)-3-CN-Ala]-Asp-fmk], for which, in assay [2], the half-maximal inhibitory concentration (IC50) was found to be 0.53 µM.

Take `O=C(O)CC(NC(=O)C(CCl)NC(=O)OCc1ccccc1)C(=O)CF` (stereo not shown) [Z-[(L)-3-Cl--Ala]--Asp--fmk, Z-[(L)-3-Cl-Ala]-Asp-fmk]: the IC50 in assay [2] amounted to 1 µM.

Take `O=C(O)CC(NC(=O)C(NC(=O)OCc1ccccc1)c1ccsc1)C(=O)CF` (stereo not shown) [Z-[(L)-3-Thg]--Asp--fmk] [Z-[(L)-3-Thg]-Asp-fmk]: the half-maximal inhibitory concentration (IC50) in assay [2] was 0.26 µM.

In the case of “Z-[3-F-3-Me-Ala]-Asp-fmk [Z-(3-F-3-Me--Ala)--Asp--fmk]”, in assay [2], the IC50 is 0.48 µM.

These data come from patent US6153591A, “Dipeptide caspase inhibitors and the use thereof” (Cytovia, Inc., priority 1999, dated 2000).
